Results on one compound are retold here after US20080287443A1, “Treatment of Subgingival Pocket Infections” (priority 2005, published 2008).

The conditions of data set [1]: human, in vivo. From the text: (§1) In this example delmopinol was used as a rinse to treat a patient who had been cared for over a 2-year period. They had been diagnosed with Morbus Crohn (Crohn's Disease) and with oral complications presenting as severe gingival lesions and swollen gingiva. They had been treated with antibiotics (Zithromax) in the past to control their oral infections and routinely used Chlorhexidine 0.12% rinse solution to control the recolonization of pathogens. Chlorhexidine is used routinely for the control of gingival infection/inflammations as an adjunct to other oral hygiene measures. There are, however side-effects with Chlorhexidine, i.e. staining of teeth, loss of taste and a burning sensation. The alcohol content in the Chlorhexidine solution may also cause some problems for patients. The potential burning sensation was in this case problematic and the patient was not compliant with Chlorhexidine rinsing. The treatment routine was changed and they were asked to rinse with 0.2% w/v delmopinol once daily for 14 days (instead of chlorhexidine). They had been given a professional cleaning of their teeth prior to rinsing with Delmopinol but no systemic antibiotics were prescribed. Zithromax was used 6 months prior the current treatment. The following clinical observations were made: 1.

The test system of a further data set is Porphyromonas gingivalis. Description: Level of key pathogen in sub-gingival samples. The class given is in vivo. As to conditions: sub-gingival samples after 14 day rinse. From the text: (§2) The treatment routine was changed and they were asked to rinse with 0.2% w/v delmopinol once daily for 14 days (instead of chlorhexidine). They had been given a professional cleaning of their teeth prior to rinsing with Delmopinol but no systemic antibiotics were prescribed. Zithromax was used 6 months prior the current treatment. In addition, a reduction of some key pathogens were found.

The subject of another data set is Tannerella forsythia. Put plainly: Level of key pathogen in sub-gingival samples. Format: in vivo. As to conditions: sub-gingival samples after 14 day rinse.
Source text: as §2

A further data set concerns Treponema denticola. Put plainly: Level of key pathogen in sub-gingival samples. The class given is in vivo. As to conditions: sub-gingival samples after 14 day rinse; FIG. 2. From the text: (§3) FIG. 2 illustrates the reduction of Treponema denticola and Aggregatibacter actinomycetemcomitans after the 14 day course of delmopinol treatment. The treatment routine was changed and they were asked to rinse with 0.2% w/v delmopinol once daily for 14 days (instead of chlorhexidine). They had been given a professional cleaning of their teeth prior to rinsing with Delmopinol but no systemic antibiotics were prescribed. Zithromax was used 6 months prior the current treatment. In addition, a reduction of some key pathogens were found.

Data set [2] concerns Aggregatibacter actinomycetemcomitans. Description: Level of key pathogen in sub-gingival samples. The class given is in vivo. As to conditions: sub-gingival samples after 14 day rinse; FIG. 2.
Source text: as §3

The next data set concerns gingival inflammation. Description: Clinical observation of gingival inflammation after delmopinol rinsing. Format: in vivo, human. As to conditions: one patient, 0.2% w/v rinse once daily for 14 days.
Source text: as §1, with “2.” for “1.”

In data set [3] the test system is total bacterial load from sub-gingival samples. Description: Total bacterial load in sub-gingival samples from four sub-gingival pockets. The class given is in vivo, human. As to conditions: pockets 13, 23, 37 and 42; after 2 week rinse vs before; FIG. 1. From the text: FIG. 1 illustrates the sub-gingival reduction in bacterial load, in four selected sub-gingival pockets, after a 14 day course of delmopinol rinsing (once daily); and The treatment routine was changed and they were asked to rinse with 0.2% w/v delmopinol once daily for 14 days (instead of chlorhexidine). They had been given a professional cleaning of their teeth prior to rinsing with Delmopinol but no systemic antibiotics were prescribed. Zithromax was used 6 months prior the current treatment.

“Also recorded” adds a separate entry of the source.

`CCCC(CCC)CCCC1COCCN1CCO` (stereo not shown) [delmopinol, 3-(4-propyl-heptyl)-4-(2-hydroxyethyl)morpholine]: the “side-effects reported by the patient (staining, burning sensation)” value in data set [1] is “no staining or burning sensation”. The “level of Porphyromonas gingivalis” value in the data set on Porphyromonas gingivalis is reported as “not reduced”. Besides, the “level of Tannerella forsythia” value in the data set with Tannerella forsythia is given as “not reduced”. The “level of Treponema denticola” value in the data set with Treponema denticola is “significantly reduced”. The “level of Aggregatibacter actinomycetemcomitans” value in data set [2] is “significantly reduced; also recorded: eliminated”. For the same compound, in the data set on gingival inflammation, the “extent of gingival inflammation (bleeding on probing, gingival swelling, ulcerations)” value was “clinically reduced”. In addition, the “total bacterial load from sub-gingival samples” value in data set [3] is listed as “significant reduction”.
